Test results reported in patent US5554630A, “Benzimidazole compounds” (NeuroSearch A/S, priority 1993, dated 1996).
Like-named read-outs stand apart in the source and are kept apart here.

Tests used:
[1] = target: benzodiazepine receptor (GABAA receptor); test: in vitro inhibition of 3H-flunitrazepam binding (rat cerebral cortex membranes); design: species or system rat (male Wistar
From the text: At present two types of GABA receptors are known, the GABAA and the GABAB receptors. […] Activation of GABA receptors leads to alternations in membrane potential (hyperpolarization). The GABAA receptors are associated with chloride influx through its associated and integrated chloride channel, whereas GABAB receptor activation indirectly alters potassium and calcium channels as well as modifies second messenger production. The GABAA recognition sites can be activated by GABA, muscimol; and isoguvacine for example, but not by GABAB agonists such as for example baclofen. The modulatory GABAA recognition site at the benzodiazepine receptor sites can be selectively radiolabelled with 3H-flunitrazepam. The affinity of various potential ligands for the benzodiazepine receptor sites can thus be evaluated by estimating the ability of test compounds to displace 3H-flunitrazepam.
Tissue preparations are performed at zero to four degrees Celsius. Cerebral cortex from male Wistar rats (150-200 g) is homogenized in 2 times 10 ml Tris-HCl, 30 mM at pH 7.4 The resulting suspension is centrifuged at 40,000 g for 15 minutes. The pellet is washed three times with buffer, centrifuged at two degrees Celsius at 40,000 g for ten minutes. The washed pellet is homogenized in 2 times 10 ml of buffer and is thereafter incubated on a water bath at 37° C. for 30 minutes and is thereafter centrifuged at 40,000 g for 10 minutes. The pellet is then homogenized with buffer and is centrifuged at 0° C. for 10 minutes at 40,000 g. The final pellet is resuspended in 30 ml buffer and the preparation may thereafter be stored at -20° C. In the test situation the membrane preparation is thawed and centrifuged at 2° C. for ten minutes at 48,000 g. The pellet is then washed two times with 2 times 10 ml 50 mM Tris-citrate at pH 7.1 using an Ultra-Turrax homogenizer and centrifuged at 48,000 g for 10 minutes. The hereby obtained pellet is resuspended in 50 mM Tris-citrate at pH 7.1,500 ml buffer per gram of original tissue, and is then used for binding assays. Aliquots of 0.5 ml tissue is added to 0.025 ml of 3H-flunitrazepam, final concentration of 1 nM, and is mixed and incubated for 40 minutes at 2° C. Non-specificbinding is determined using clonazepam, at 100 ng/ml final concentration. After incubation 5 ml of icecold buffer is added to the samples and these are poured directly onto Whatman GF/C glass fibre filters under suction and is immediately washed with 5 ml icecold buffer. The amount of radioactivity on the filters is determined by conventional liquid scintillation counting. Specific binding is total binding minus non specific binding. Test value is calculated as the IC50 which is equivalent to the concentration which inhibits the specific binding by 50 percent.
The method used to determine in vitro inhibition of ^3 H-flunitrazepam binding is presented under the heading of Biology.

[2] = tested on: GABAA receptor-ion channel complex (benzodiazepine receptor, mouse forebrain); test: in vivo inhibition of 3H-flunitrazepam binding in mouse forebrain; design: species or system mouse (female NMRI); conditions: i.p. 10 min before i.v. 3H-FNM, mice killed 20 min later, 30 min
[3] = tested on: GABAA receptor-ion channel complex; conditions: background statement, in vitro; cited from earlier work
[4] = first table, 1 nM 3H-flunitrazepam, 40 min at 2° C, read-out: IC50
[5] = second table (R6/R11), 3H-flunitrazepam, read-out: in-vitro binding IC50

| SMILES | IC50 [1, 4] [nM] | IC50 [1, 5] [nM] | in-vivo binding ED50 [2] [mg/kg] | binding to the GABAA receptor-ion channel complex (in words) [3] |
| --- | --- | --- | --- | --- |
| CN1C(=O)c2ccccc2-n2cnc3cc(C(F)(F)F)cc1c32 [Compound 2f, 4-trifluoromethyl-6,7-dihydro-6-methyl-7-oxo-benzimidazo[3,4-ab][1,4]benzodiazepine] | 5.4 | – | – | – |
| FC(F)(F)c1ccc2c(c1)ncn2-c1cccc(-n2ccnc2)c1 [Compound 3a, 1-(3-(1-Imidazolyl)-phenyl)-5 trifluoromethylbenzimidazole] | – | 16 | 7.3 | – |
| CC(C)OC(=O)c1ccc2c(c1)ncn2-c1cccc(-n2ccnc2)c1 [Compound 4a] | – | 11 | > 10.0 | – |
| Cc1ccc2c(c1)ncn2-c1cccc(-n2ccnc2)c1 [Compound 5a, 1-[3-(1-imidazolyl)-phenyl]-5-methyl-benzimidazole] | 1.2 | 1.2 | 0.8 | – |
| CC(C)(C)c1ccc2c(c1)ncn2-c1cccc(-n2ccnc2)c1 [Compound 6a, 1-[3-(1-imidazolyl)-phenyl]-5-t-butyl-benzimidazole] | 2.4 | 2.4 | 2.1 | – |
| Cc1cn(-c2cccc(-n3cnc4cc(C(C)(C)C)ccc43)c2)cn1 [Compound 8a] | – | 11 | – | – |
| c1ccc(-c2ccc3c(c2)ncn3-c2cccc(-n3ccnc3)c2)cc1 [Compound 9a, 1-[3-(1-imidazolyl)-phenyl]-5-phenyl-benzimidazole] | 7.4 | 7.2 | 8.9 | – |
| CC(C)c1ccc2c(c1)ncn2-c1cccc(-n2ccnc2)c1 [Compound 14a, 1-[3-(1-imidazolyl)-phenyl]-5-i-propyl-benzimidazole] | 0.6 | 0.6 | 1.2 | – |
| Ic1ccc2c(c1)ncn2-c1cccc(-c2cccnc2)c1 [Compound 18a, 1-[3-(3-pyridyl)-phenyl]-5-iodo-benzimidazole] | 1.7 | 1.7 | 1.5 | – |
| CC(C)(C)c1ccc2c(c1)ncn2-c1cccc(-c2cccnc2)c1 [Compound 22a, 1-[3-(3-pyridyl)-phenyl]-5-t-butyl-benzimidazole] | – | 10 | 16.3 | – |
| O=[N+]([O-])c1ccc2c(c1)ncn2-c1cccc(-c2cccnc2)c1 [Compound 24a] | – | 40 | 6.1 | – |
| Cc1noc(-c2cccc(-n3cnc4cc(C(C)(C)C)ccc43)c2)n1 [Compound 33a] | – | 13 | 8.2 | – |
| CC(C)c1ccc2c(c1)ncn2-c1cccc(-n2cnc3ccccc32)c1 [Compound 34a, 1-[3-(1-benzimidazolyl)-phenyl]-5-i-propyl-benzimidazole] | 4.3 | 4.3 | 2.8 | – |
| Cc1nccn1-c1cccc(-n2cnc3cc(-c4ccccc4)ccc32)c1 [Compound 38a, 1-[3-(1-(2-methylimidazolyl))-phenyl]-5-phenyl-benzimidazole] | 9 | 9 | 2.6 | – |
| FC(F)(F)c1ccc2c(c1)ncn2-c1cccc(-n2cnc3ccccc32)c1 [Compound 39a, 1-[3-(1-benzimidazolyl)-phenyl]-5-trifluoromethyl-benzimidazole] | 9.2 | 9.2 | 7.5 | – |
| O=CNc1ccc2c(c1)ncn2-c1cccc(-n2ccnc2)c1 [Compound 41a] | – | 13 | > 10.0 | – |
| c1cncc(-c2cccc(-n3cnc4cc(-c5ccoc5)ccc43)c2)c1 [Compound 45a, 1-[3-(3-pyridyl)-phenyl]-5-(3-furanyl)-benzimidazole] | 1.2 | 1.4 | 1.9 | – |
| O=Cc1ccc2c(c1)ncn2-c1cccc(-c2cccnc2)c1 [Compound 50a, 1-(3-(3-pyridyl)phenyl)-5-formylbenzimidazole] | – | 37 | > 3 | – |
| ON=Cc1ccc2c(c1)ncn2-c1cccc(-c2cccnc2)c1 [Compound 52a, 1-(3-(3-pyridyl)phenyl)-5-aldoximobenzimidazole] | – | 3.3 | 1.6 | – |
| c1cncc(-c2cccc(-n3cnc4cc(-c5nc(C6CC6)no5)ccc43)c2)c1 [Compound 53a] | – | 28 | 24.0 | – |
| NC(=O)NN=Cc1ccc2c(c1)ncn2-c1cccc(-c2cccnc2)c1 [Compound 55a, 1-(3-(3-pyridyl)phenyl)-5-semicarbazonobenzimidazole] | – | 7.6 | > 3.0 | – |
| c1cncc(-c2cccc(-n3cnc4cc(-n5ccnc5)ccc43)c2)c1 [Compound 56a] | – | 22 | 6.8 | – |
| c1cncc(-c2cccc(-n3cnc4cc(-c5ccco5)ccc43)c2)c1 [Compound 57a, 1-[3-(3-pyridyl)-phenyl]-5-(2-furanyl)-benzimidazole] | – | 4.3 | 4.8 | – |
| COCc1ccc2c(c1)ncn2-c1cccc(-c2cccnc2)c1 [Compound 58a] | – | 15 | 1.7 | – |
| CON=Cc1ccc2c(c1)ncn2-c1cccc(-c2cccnc2)c1 [Compound 59a, 1-[3-(3-pyridyl)-phenyl]-5-methylaldoximo-benzimidazole] | – | 2 | 1.04 | – |
| CC(C)c1ccc2c(c1)ncn2-c1cccc(-c2cccnc2)c1 [Compound 60a, 1-[3-(3-pyridyl)-phenyl]-5-i-propyl-benzimidazole] | – | 4.2 | 2.2 | – |
| CN1C(=O)CN=C(c2ccccc2F)c2cc([N+](=O)[O-])ccc21 [^3 H-FNM] | – | – | – | selectively and with high-affinity |
